From the supplement of paper PMC4862054

Key:
Settings in all cases: 72 h
MDA-MB-453 [1] = test system: MDA-MB-453
Experimental: (§1)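 Drug sensitivity and resistance testing (DSRT) of breast cancer cell lines in 384-well plates, 5 concentrations in 10-fold dilutions over a compound-specific 10,000-fold range. After 72 h, cytotoxicity was read by CellTox Green fluorescence and viability by CellTiter-Glo luminescence (multiplexed), normalised to DMSO and benzethonium chloride controls. EC50 is the inflection point of the fitted dose-response curve (bottom asymptote free, so it can be relative for partial curves) and is censored at the highest tested concentration. Rows with DSS 0 (no meaningful response) were excluded.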

HCC1937 [2] = test system: HCC1937
Experimental: as §1

HDQ-P1 [3] = test system: HDQ-P1
Experimental: as §1

BT-549 [4] = test system: BT-549
Experimental: as §1

MDA-MB-231 [5] = test system: MDA-MB-231
Experimental: as §1

CAL-85-1 [6] = test system: CAL-85-1
Experimental: as §1

MDA-MB-468 = test system: MDA-MB-468
Experimental: as §1

DU-4475 [7] = test system: DU-4475
Experimental: as §1

HCC1599 [8] = test system: HCC1599
Experimental: as §1

CAL-51 [9] = test system: CAL-51
Experimental: as §1

BT-474 [10] = test system: BT-474
Experimental: as §1

Hs578T [11] = test system: Hs578T
Experimental: as §1

HCC1143 [12] = test system: HCC1143
Experimental: as §1

MFM-223 [13] = test system: MFM-223
Experimental: as §1

MCF-10A [14] = test system: MCF-10A
Experimental: as §1

MDA-MB-453 [15] = test system: MDA-MB-453; remark: listed apart in the source
Outline: (§2)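 Per-plate normalisation used 0.1 % DMSO and a positive kill control. Breast cancer cell lines (20 µl suspension) were seeded into 384-well plates containing compound at 5 concentrations in 10-fold steps across a compound-specific 10,000-fold range, incubated for 72 h, and read first for CellTox Green fluorescence (485/520 nm), then for CellTiter-Glo luminescence. EC50 was fitted from the dose-response curves and censored at the top concentration.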

HCC1937 [16] = test system: HCC1937; remark: listed apart in the source
Outline: as §2

SK-BR-3 [17] = test system: SK-BR-3
Outline: as §2

CAL-148 = test system: CAL-148
Outline: as §2

BT-549 [18] = test system: BT-549; remark: listed apart in the source
Outline: as §2

MDA-MB-436 = test system: MDA-MB-436
Outline: as §2

MDA-MB-231 [19] = test system: MDA-MB-231; remark: listed apart in the source
Outline: as §2

CAL-85-1 [20] = test system: CAL-85-1; remark: listed apart in the source
Outline: as §2

DU-4475 [21] = test system: DU-4475; remark: listed apart in the source
Outline: as §2

HCC1599 [22] = test system: HCC1599; remark: listed apart in the source
Outline: as §2

CAL-51 [23] = test system: CAL-51; remark: listed apart in the source
Outline: as §2

Hs578T [24] = test system: Hs578T; remark: listed apart in the source
Outline: as §2

HCC1143 [25] = test system: HCC1143; remark: listed apart in the source
Outline: as §2

MFM-223 [26] = test system: MFM-223; remark: listed apart in the source
Outline: as §2

CAL-120 = test system: CAL-120
Outline: as §2

MCF-10A [27] = test system: MCF-10A; remark: listed apart in the source
Outline: as §2

HCC1937 [28] = test system: HCC1937; remark: listed apart in the source
Outline: (§3)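 To measure viability, fluorescence at 560/590 nm was read after 2.5 µl CellTiter-Blue had been added for 2 h at 37 °C. Cells from breast cancer lines had been seeded in 20 µl suspension onto 384-well plates pre-loaded with compound dissolved in 5 µl medium and kept for 72 h. EC50 comes from a fitted percent-inhibition dose-response curve censored at the highest concentration, after per-plate normalisation to vehicle and a positive kill control, Z'-factor checks, and removal of rows with zero drug sensitivity score.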

SK-BR-3 [29] = test system: SK-BR-3; remark: listed apart in the source
Outline: as §3

BT-549 [30] = test system: BT-549; remark: listed apart in the source
Outline: as §3

HCC1599 [31] = test system: HCC1599; remark: listed apart in the source
Outline: as §3

BT-474 [32] = test system: BT-474; remark: listed apart in the source
Outline: as §3

Hs578T [33] = test system: Hs578T; remark: listed apart in the source
Outline: as §3

HCC1143 [34] = test system: HCC1143; remark: listed apart in the source
Outline: as §3

HDQ-P1 [35] = test system: HDQ-P1; remark: listed apart in the source
Outline: as §3

CAL-85-1 [36] = test system: CAL-85-1; remark: listed apart in the source
Outline: as §3

Structure (SMILES) | EC50, CellTox Green (MDA-MB-453 [1]) [nM] | EC50, CellTox Green (HCC1937 [2]) [nM] | EC50, CellTox Green (HDQ-P1 [3]) [nM] | EC50, CellTox Green (BT-549 [4]) [nM] | EC50, CellTox Green (MDA-MB-231 [5]) [nM] | EC50, CellTox Green (CAL-85-1 [6]) [nM] | EC50, CellTox Green (MDA-MB-468) [nM] | EC50, CellTox Green (DU-4475 [7]) [nM] | EC50, CellTox Green (HCC1599 [8]) [nM] | EC50, CellTox Green (CAL-51 [9]) [nM] | EC50, CellTox Green (BT-474 [10]) [nM] | EC50, CellTox Green (Hs578T [11]) [nM] | EC50, CellTox Green (HCC1143 [12]) [nM] | EC50, CellTox Green (MFM-223 [13]) [nM] | EC50, CellTox Green (MCF-10A [14]) [nM] | EC50, CellTiter-Glo (MDA-MB-453 [15]) [nM] | EC50, CellTiter-Glo (HCC1937 [16]) [nM] | EC50, CellTiter-Glo (SK-BR-3 [17]) [nM] | EC50, CellTiter-Glo (CAL-148) [nM] | EC50, CellTiter-Glo (BT-549 [18]) [nM] | EC50, CellTiter-Glo (MDA-MB-436) [nM] | EC50, CellTiter-Glo (MDA-MB-231 [19]) [nM] | EC50, CellTiter-Glo (CAL-85-1 [20]) [nM] | EC50, CellTiter-Glo (DU-4475 [21]) [nM] | EC50, CellTiter-Glo (HCC1599 [22]) [nM] | EC50, CellTiter-Glo (CAL-51 [23]) [nM] | EC50, CellTiter-Glo (Hs578T [24]) [nM] | EC50, CellTiter-Glo (HCC1143 [25]) [nM] | EC50, CellTiter-Glo (MFM-223 [26]) [nM] | EC50, CellTiter-Glo (CAL-120) [nM] | EC50, CellTiter-Glo (MCF-10A [27]) [nM] | EC50, CellTiter-Blue viability (HCC1937 [28]) [nM] | EC50, CellTiter-Blue viability (SK-BR-3 [29]) [nM] | EC50, CellTiter-Blue viability (BT-549 [30]) [nM] | EC50, CellTiter-Blue viability (HCC1599 [31]) [nM] | EC50, CellTiter-Blue viability (BT-474 [32]) [nM] | EC50, CellTiter-Blue viability (Hs578T [33]) [nM] | EC50, CellTiter-Blue viability (HCC1143 [34]) [nM] | EC50, CellTiter-Blue viability (HDQ-P1 [35]) [nM] | EC50, CellTiter-Blue viability (CAL-85-1 [36]) [nM]
Cc1ccc([N+](=O)[O-])cc1S(=O)(=O)N(C)/N=C/c1cnc2ccc(Br)cn12 [PIK-75] | 597 | 6400 | 105 | 274 | 6.39 | 31.6 | 178 | 23.8 | 33.9 | 6.21 | 161 | 42 | 182 | 582 | 16.6 | 98.6 | 48.5 | 26.8 | 21.1 | 39 | 29.8 | 27.6 | 30.6 | 35.2 | 87.2 | 21.3 | 35.4 | 51.3 | 52.1 | 29.2 | 45.7 |  |  |  |  |  |  |  |  | 
C[C@]1(O)C[C@@H](c2nc(-c3ccc4ccc(-c5ccccc5)nc4c3)c3c(N)nccn32)C1 [OSI-906] |  |  |  |  |  |  |  |  |  |  |  |  |  |  |  |  |  |  |  |  |  |  |  |  |  |  |  |  |  |  |  | 9830 | 105 | 7100 | 204 | 1680 | 1910 | 881 | 278 | 7720
